Assay results from patent publication US7297353B2, “Use of anemonin for treating aseptic inflammations” (priority 2000, dated 2007).

Key:
[1] = tested on: pain induced by hot plate; test: Analgesic test with hot plate; type: in vivo, mice; conditions: 25 mg/kg intraperitoneal
Procedure: This experiment included 4 groups of female mice, totaling 64 and each weighed 18-22 g, selected for normal pain reaction with 55° C. hot plate: high concentration group, low concentration group, dolantin group and control group. The route of administration and dosage are the same as described in the test with formalin. Dolantin was intraperitoneal injected and other groups received test medication on left and right hind feet and abdomen. 30, 60 and 90 minutes after the administration, the mice were put on a 55° C. hot plate and the latent time of each mouse for pain reaction was determined.

pain induced by formalin = test: Analgesic test with formalin; type: in vivo, mice; conditions: 25 mg/kg intraperitoneal
Procedure: Dolantin was intraperitoneal injected and other groups received test medication on left and right hind feet. 15 minutes after administration, 0.03 ml of 2.5% formalin was given to each mouse by subcutaneous injection on right hind foot and then the test medication was applied again. Then, the number of times of each mouse's licking its right hind foot in 15 minutes was counted.

[2] = tested on: carrageenan-induced paw edema; test: Acute hind paw edema of rats induced by carrageenan; type: in vivo; conditions: for Paw edema: FAA group
Procedure: The animals were injected subcutaneously with carrageenan (10 μl of 1% solution in saline) into the right paw. Anti-inflammatory properties of external anemonin were studied by applying with various liniment solution of anemonin (0.125, 0.5, 2 mg/ml, 0.5 ml) for 2 h immediately after administration of carrageenan. The rats of control group were treated with the same volume of solvent (25% ethanol). The paw volumes of rats were measured at 0, 2 h, 3 h, 4 h, 5 h, 6 h after injection of carrageenan. The paw edema was represented by subtracting the volume of the untreated same paw from that of the treated paw.

[3] = tested on: dimethylbenene-induced ear swelling; test: Acute ear edema of mice induced by dimethylbenene; type: in vivo; conditions: positive control applied on ear; two hours after dimethylbenene
Procedure: The mice were randomly divided into 5 groups. Thirty minutes and sixty minutes after applying dimethylbenene (50 μl) to the anterior and posterior surfaces of the right ear, 25% ethanol (50 μl), the linimene solutions of anemonin (0.05, 0.5, 5 mg/ml, 50 μl) and FAA (a positive control) were applied on the same ears of mice respectively. The left ear was considered as control. Two hours after dimethylbenene application, mice were killed and both ears were removed. Circular sections were taken, using a 9 mm-diameter borer, and weighed. The increase in weight caused by the irritant was measured by subtracting the weight of the untreated left ear section from that of the treated right ear section.

[4] = tested on: swelling of rat's hind foot; test: Anti-swelling test on rat's hind foot (carrageenan); type: in vivo, rats; conditions: 0.025% ointment
Procedure: This experiment included 4 groups of rats totaling 40 and each weighed 200-250 g: high concentration group, low concentration group (12.5 mg/25 ml, 6.25 mg/25 ml respectively), fluocinolone acetonide group, control group (the same volume of 25% ethanol). Fluocinolone acetonide was given using a 0.025% ointment, and other groups received corresponding medicament on the left and right hind feet prior to subcutaneous injection of 0.1 ml of 1% carrageenan on the metatarsus of each rat's right hind foot. Immediately after the administration of carrageenan, corresponding medicament was applied on the right hind foot. The metatarsal perimeters of right and left hind foot of each rat were measured 2, 3, 4, and 5 hours after the final administration. The difference between the metatarsal perimeters of the two feet of each rat is taken as a measure of swelling. Corresponding medicament was applied again on rat's right hind foot after each measurement.

skin = test: Skin allergic test; conditions: guinea pigs

Question: How did the “Increase of pain threshold (%)” value ([1]; 30 min after administration) turn out when `CCOC(=O)C1(c2ccccc2)CCN(C)CC1` [Dolantin] was run?
Answer: 66%

Question: What about the “Latent time for pain reaction” value ([1]; 30 min after administration) of the same compound?
Answer: 49.86 ± 5.23 s

Question: And the “Increase of pain threshold (%)” value ([1]; 60 min after administration)?
Answer: 80%

Question: And the “Latent time for pain reaction” value ([1]; 60 min after administration)?
Answer: 54.29 ± 9.27 s

Question: What about the “Increase of pain threshold (%)” value ([1]; 90 min after administration) of the same compound?
Answer: 94%

Question: And the “Latent time for pain reaction” value ([1]; 90 min after administration)?
Answer: 58.31 ± 11.23 s

Question: What about the “Rate of inhibition(%)” value (pain induced by formalin) of the same compound?
Answer: 100%

Question: And the “Times of licking hind feet” value (pain induced by formalin; 15 minutes)?
Answer: 0.00 ± 0.00

Question: Which “Paw edema” value ([2]; 2 h) does the source give for `CC(=O)OCC(=O)[C@@]12OC(C)(C)O[C@@H]1C[C@H]1[C@@H]3C[C@H](F)C4=CC(=O)C=C[C@]4(C)[C@@]3(F)[C@@H](O)C[C@@]12C` [FAA, Fluocinoloni Acetonidi Acetas, reference compound] here?
Answer: 0.13 ± 0.05 mL

Question: What about the “Paw edema” value ([2]; 3 h) of the same compound?
Answer: 0.09 ± 0.07 mL

Question: What about the “Paw edema” value ([2]; 4 h) of the same compound?
Answer: 0.11 ± 0.08 mL

Question: And the “Paw edema” value ([2]; 5 h)?
Answer: 0.09 ± 0.07 mL

Question: What about the “Paw edema” value ([2]; 6 h) of the same compound?
Answer: 0.09 ± 0.11 mL

Question: What about the edema formation ([2]; steroidal anti-inflammatory drug, positive control) of the same compound?
Answer: significantly inhibited

Question: What about the “Ear swellin” value [3] of the same compound?
Answer: 10 ± 1.8 mg

Question: `CC1(C)O[C@@H]2C[C@H]3[C@@H]4C[C@H](F)C5=CC(=O)C=C[C@]5(C)[C@@]4(F)[C@@H](O)C[C@]3(C)[C@]2(C(=O)CO)O1` [Fluocinolone acetonide] was tested. Which “Degree of tumefaction (cm)” value ([4]; 2 hours) did it give?
Answer: 0.91 ± 0.20 cm

Question: What about the “Degree of tumefaction (cm)” value ([4]; 3 hours) of the same compound?
Answer: 0.92 ± 0.13 cm

Question: What about the “Degree of tumefaction (cm)” value ([4]; 4 hours) of the same compound?
Answer: 0.90 ± 0.18 cm

Question: And the “Degree of tumefaction (cm)” value ([4]; 5 hours)?
Answer: 0.92 cm

Question: For `O=[N+]([O-])c1ccc(Cl)c([N+](=O)[O-])c1` [positive control, 2,4-dinitrochlorobenzene], which allergenic intensity (skin) is on record?
Answer: extreme

Question: And the allergenic rate (skin)?
Answer: 100%
